# Laboratory results taken from PubChem BioAssay (NCI).
#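 Assay format: 96-well plates, 48-hour exposure. GI50 is the concentration that inhibits growth by half. TGI is the concentration that stops growth completely.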
# Columns and labels:
# Test in all cases: DTP human tumour cell line panel, 48 h
# 786-0 renal = test system: 786-0 renal
# A498 renal = test system: A498 renal
# ACHN renal = test system: ACHN renal
# DU-145 prostate = test system: DU-145 prostate
# EKVX NSCLC = test system: EKVX NSCLC
# HCC-2998 colon = test system: HCC-2998 colon
# HCT-15 colon = test system: HCT-15 colon
# HS 578T breast = test system: HS 578T breast
# KM12 colon = test system: KM12 colon
# MALME-3M melanoma = test system: MALME-3M melanoma
# MCF7 breast = test system: MCF7 breast
# MDA-MB-231 breast = test system: MDA-MB-231 breast
# MDA-MB-468 breast = test system: MDA-MB-468 breast
# NCI-H226 lung = test system: NCI-H226 lung
# NCI-H23 lung = test system: NCI-H23 lung
# OVCAR-3 ovarian = test system: OVCAR-3 ovarian
# OVCAR-4 ovarian = test system: OVCAR-4 ovarian
# OVCAR-5 ovarian = test system: OVCAR-5 ovarian
# OVCAR-8 ovarian = test system: OVCAR-8 ovarian
# RXF 393 renal = test system: RXF 393 renal
# SK-MEL-2 melanoma = test system: SK-MEL-2 melanoma
# SK-MEL-5 melanoma = test system: SK-MEL-5 melanoma
# SK-OV-3 ovarian = test system: SK-OV-3 ovarian
# SNB-19 CNS = test system: SNB-19 CNS
# SNB-75 CNS = test system: SNB-75 CNS
# SW-620 colon = test system: SW-620 colon
# T-47D breast = test system: T-47D breast
# TK-10 renal = test system: TK-10 renal
# UO-31 renal = test system: UO-31 renal
compound,measurement,setting,value
COc1cccc2nc(Nc3cccc(NC(=O)c4ccc(CN5CCCN(C)CC5)c(C(F)(F)F)c4)c3)ccc12,GI50,786-0 renal,1.72 µM
same,TGI,786-0 renal,3.35 µM
same,GI50,A498 renal,13.5 µM
same,TGI,A498 renal,31.4 µM
same,GI50,ACHN renal,1.87 µM
same,TGI,ACHN renal,3.62 µM
same,GI50,DU-145 prostate,2.19 µM
same,TGI,DU-145 prostate,4.91 µM
same,GI50,EKVX NSCLC,1.72 µM
same,TGI,EKVX NSCLC,3.1 µM
same,GI50,HCC-2998 colon,1.71 µM
same,TGI,HCC-2998 colon,3.09 µM
same,GI50,HCT-15 colon,1.62 µM
same,TGI,HCT-15 colon,3.03 µM
same,GI50,HS 578T breast,2.46 µM
same,TGI,HS 578T breast,8.09 µM
same,GI50,KM12 colon,2.49 µM
same,TGI,KM12 colon,6.14 µM
same,GI50,MALME-3M melanoma,1.72 µM
same,TGI,MALME-3M melanoma,3.12 µM
same,GI50,MCF7 breast,1.59 µM
same,TGI,MCF7 breast,3 µM
same,GI50,MDA-MB-231 breast,1.83 µM
same,TGI,MDA-MB-231 breast,3.4 µM
same,GI50,MDA-MB-468 breast,1.56 µM
same,TGI,MDA-MB-468 breast,2.98 µM
same,GI50,NCI-H226 lung,1.94 µM
same,TGI,NCI-H226 lung,4.65 µM
same,GI50,NCI-H23 lung,1.68 µM
same,TGI,NCI-H23 lung,3.07 µM
same,GI50,OVCAR-3 ovarian,2.14 µM
same,TGI,OVCAR-3 ovarian,5.45 µM
same,GI50,OVCAR-4 ovarian,2.67 µM
same,TGI,OVCAR-4 ovarian,10.7 µM
same,GI50,OVCAR-5 ovarian,1.71 µM
same,TGI,OVCAR-5 ovarian,3.29 µM
same,GI50,OVCAR-8 ovarian,2.03 µM
same,TGI,OVCAR-8 ovarian,4.75 µM
same,GI50,RXF 393 renal,1.66 µM
same,TGI,RXF 393 renal,3.24 µM
same,GI50,SK-MEL-2 melanoma,2.15 µM
same,TGI,SK-MEL-2 melanoma,4.93 µM
same,GI50,SK-MEL-5 melanoma,1.71 µM
same,TGI,SK-MEL-5 melanoma,3.08 µM
same,GI50,SK-OV-3 ovarian,4.33 µM
same,TGI,SK-OV-3 ovarian,21.3 µM
same,GI50,SNB-19 CNS,1.72 µM
same,TGI,SNB-19 CNS,3.17 µM
same,GI50,SNB-75 CNS,1.52 µM
same,TGI,SNB-75 CNS,7.97 µM
same,GI50,SW-620 colon,1.75 µM
same,TGI,SW-620 colon,3.24 µM
same,GI50,T-47D breast,5.43 µM
same,TGI,T-47D breast,41.4 µM
same,GI50,TK-10 renal,4.91 µM
same,TGI,TK-10 renal,19.3 µM
same,GI50,UO-31 renal,1.74 µM
same,TGI,UO-31 renal,3.43 µM
CCSCC1CC(O)(c2ccccc2)C(c2ccccc2)C(c2ccc(F)cc2)O1 (stereo unspecified),GI50,MDA-MB-468 breast,2.94 µM
same,TGI,MDA-MB-468 breast,10.4 µM
CNCc1ccc(-c2cc(-c3nc(-c4ccc(S(=O)(=O)C(C)C)cc4)cnc3N)on2)cc1,GI50,MDA-MB-468 breast,2.26 µM
same,TGI,MDA-MB-468 breast,20.3 µM
CC(=O)Oc1ccc(C2=Cc3ccc(OC(C)=O)cc3OC2C)cc1 (stereo unspecified),GI50,MDA-MB-468 breast,5.96 µM
same,TGI,MDA-MB-468 breast,51.4 µM
CC[C@H](C)[C@H](NC(=O)[C@H]1CCCCN1C)C(=O)N(C)[C@H](C[C@@H](OC(C)=O)c1nc(C(=O)NC23CC(C(=O)OC)(C2)C3)cs1)C(C)C,GI50,MDA-MB-468 breast,0.000292 µM
same,TGI,MDA-MB-468 breast,0.0714 µM
S=C1SCN(Cc2ccccc2)CN1Cc1ccco1,GI50,MDA-MB-468 breast,1.04 µM
same,TGI,MDA-MB-468 breast,13.5 µM
CCNC(=O)N1CCc2cc(OC)c(OCCc3ccc(OC)cc3)cc2C1c1ccc(Cl)cc1C (stereo unspecified),GI50,MDA-MB-468 breast,2.01 µM
same,TGI,MDA-MB-468 breast,6.43 µM
COc1cc2nnc3c4cccnc4[nH]c3c2cc1OC,GI50,MDA-MB-468 breast,0.225 µM
same,TGI,MDA-MB-468 breast,1.22 µM
COc1ccccc1C1c2cc3c(cc2OC2(OC)COC(=O)C12)OCO3 (stereo unspecified),GI50,MDA-MB-468 breast,20.2 µM
same,TGI,MDA-MB-468 breast,95.4 µM
COc1ccc(-c2cc(/C=C/C(=O)c3ccc(N)cc3)[nH]n2)cc1OC,GI50,MDA-MB-468 breast,1.55 µM
same,TGI,MDA-MB-468 breast,3.48 µM
COc1ccccc1Oc1nccc(-c2c(-c3ccc(F)cc3)ncn2C2CCNCC2)n1,GI50,MDA-MB-468 breast,3.17 µM
same,TGI,MDA-MB-468 breast,14.3 µM
ClCCOCCn1cnc2c(Cl)nc(Cl)nc21,GI50,MDA-MB-468 breast,3.16 µM
same,TGI,MDA-MB-468 breast,25 µM
Fc1ccc(NC(c2ccc(F)cc2)C2CCN(CCCCc3ccccc3)CC2)cc1 (stereo unspecified),GI50,MDA-MB-468 breast,1.72 µM
same,TGI,MDA-MB-468 breast,3.43 µM
CCc1ccc(Nc2cc(C)c3ccc(O)cc3n2)cc1,GI50,MDA-MB-468 breast,3.57 µM
same,TGI,MDA-MB-468 breast,12.8 µM
Cc1cccc(Cn2cc(CO)c3cnccc32)c1,GI50,MDA-MB-468 breast,6.34 µM
same,TGI,MDA-MB-468 breast,43.3 µM
CCN(CC)c1ccc2nc3ccc(=[N+](CC)CC)cc-3oc2c1,GI50,MDA-MB-468 breast,0.0631 µM
same,TGI,MDA-MB-468 breast,0.231 µM
COc1ccc(C(O)c2cc3c(N)c(C(=O)Nc4cccc5ccccc45)sc3nc2C)cc1 (stereo unspecified),GI50,MDA-MB-468 breast,2.64 µM
same,TGI,MDA-MB-468 breast,> 100 µM
Nc1nc(=S)c2ncn(C3OC(COP(=O)(O)O)C(O)C3O)c2[nH]1 (stereo unspecified),GI50,MDA-MB-468 breast,0.478 µM
same,TGI,MDA-MB-468 breast,6.3 µM
O=C(Nc1ccc(OC(F)(F)Cl)cc1)c1cnc(N2CC[C@@H](O)C2)c(-c2ccn[nH]2)c1,GI50,MDA-MB-468 breast,4.89 µM
same,TGI,MDA-MB-468 breast,23.1 µM
COc1ccc2c(c1)c(/C=N/Nc1ccnc3cc(Cl)ccc13)cn2C,GI50,MDA-MB-468 breast,0.217 µM
same,TGI,MDA-MB-468 breast,0.456 µM
